Test results as given in US6680289B1, “Methods, compositions, and articles for odor control” (The Proctor & Gamble Company, priority 1999, dated 2004).

Key:
[1] = cited from earlier work
[2] = Interaction of perfume components with cyclodextrin (CD); type: physicochemical; conditions: perfume component with cyclodextrin
Excerpt: The following table illustrates the molecular weight property of some of the preferred perfume versus non-preferred perfume components.

Compound	solubility in water [1]	CD interaction [2]
ClC=CC[N+]12CN3CN(CN(C3)C1)C2.[Cl-] [Dowicil 200, 1-(3-Chlorallyl) -3,5,7-triaza-1-azoniaadamantane chloride]	freely soluble in water	–
CCC(C)(O)CCCC(C)C (centres unmarked) [Tetrahydrolinalol]	–	significant
